Key:
[1] = system: subjects; test: Standard short-term memory test (repeat series of numbers backward); format: in vivo, human; settings: three of the five subjects, 30 minutes after ingestion
Experimental: The test consisted of an examiner reading a series of numbers to the subject and the subject subsequently being asked to repeat said numbers backward. In all cases, the test was initiated 30 minutes after ingestion of the composition.

[2] = system: subjects; test: Stimulant effect: score in video game of skill (Pilot Wing); format: in vivo, human; settings: five subjects, crossover with placebo, 180 mg caffeine, Formulation I
Experimental: Five subjects were tested over a period of three days. […] Both prior to and after consuming the composition, each subject played a video game of skill called Pilot Wing™ made by Nintendo™.

Cn1c(=O)c2c(ncn2C)n(C)c1=O [caffeine]
digits repeated backwards without error [1]: could not repeat this accomplishment
video game score after consuming the composition [2]: higher scores after consuming the caffeine, compared to consuming the placebo
